Tests used:
EEF1A2 = biological target: T1, EEF1A2 (Homo sapiens, UniProt Q05639); test: decryptC competitive reactive cysteine profiling in intact cells, LC-MS/MS; type: cell-based; conditions: covalent; C31; […] h incubation; range over MiaPaCa-2, NCI-H23 and ASPC1 cells
T1 sequence (Q05639 2-463): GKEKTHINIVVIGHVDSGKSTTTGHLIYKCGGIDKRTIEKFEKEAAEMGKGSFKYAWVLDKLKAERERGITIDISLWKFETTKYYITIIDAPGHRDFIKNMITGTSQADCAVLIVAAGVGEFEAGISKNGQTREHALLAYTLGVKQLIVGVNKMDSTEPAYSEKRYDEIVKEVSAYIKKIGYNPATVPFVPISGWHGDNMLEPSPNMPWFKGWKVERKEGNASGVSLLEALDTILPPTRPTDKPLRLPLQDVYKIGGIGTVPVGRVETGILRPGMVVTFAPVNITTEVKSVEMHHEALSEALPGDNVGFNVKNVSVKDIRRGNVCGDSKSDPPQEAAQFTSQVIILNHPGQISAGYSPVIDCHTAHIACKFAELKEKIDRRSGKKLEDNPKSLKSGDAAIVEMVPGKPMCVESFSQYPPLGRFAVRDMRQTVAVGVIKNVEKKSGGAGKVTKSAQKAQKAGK

AAK1 = AAK1 (Homo sapiens, UniProt Q2M2I8); test: Kinobead selectivity profiling; type: biochemical; conditions: read-out: K ^app; apparent value; off-target of ERK inhibitor
Sequence of AAK1 (Q2M2I8 whole entry): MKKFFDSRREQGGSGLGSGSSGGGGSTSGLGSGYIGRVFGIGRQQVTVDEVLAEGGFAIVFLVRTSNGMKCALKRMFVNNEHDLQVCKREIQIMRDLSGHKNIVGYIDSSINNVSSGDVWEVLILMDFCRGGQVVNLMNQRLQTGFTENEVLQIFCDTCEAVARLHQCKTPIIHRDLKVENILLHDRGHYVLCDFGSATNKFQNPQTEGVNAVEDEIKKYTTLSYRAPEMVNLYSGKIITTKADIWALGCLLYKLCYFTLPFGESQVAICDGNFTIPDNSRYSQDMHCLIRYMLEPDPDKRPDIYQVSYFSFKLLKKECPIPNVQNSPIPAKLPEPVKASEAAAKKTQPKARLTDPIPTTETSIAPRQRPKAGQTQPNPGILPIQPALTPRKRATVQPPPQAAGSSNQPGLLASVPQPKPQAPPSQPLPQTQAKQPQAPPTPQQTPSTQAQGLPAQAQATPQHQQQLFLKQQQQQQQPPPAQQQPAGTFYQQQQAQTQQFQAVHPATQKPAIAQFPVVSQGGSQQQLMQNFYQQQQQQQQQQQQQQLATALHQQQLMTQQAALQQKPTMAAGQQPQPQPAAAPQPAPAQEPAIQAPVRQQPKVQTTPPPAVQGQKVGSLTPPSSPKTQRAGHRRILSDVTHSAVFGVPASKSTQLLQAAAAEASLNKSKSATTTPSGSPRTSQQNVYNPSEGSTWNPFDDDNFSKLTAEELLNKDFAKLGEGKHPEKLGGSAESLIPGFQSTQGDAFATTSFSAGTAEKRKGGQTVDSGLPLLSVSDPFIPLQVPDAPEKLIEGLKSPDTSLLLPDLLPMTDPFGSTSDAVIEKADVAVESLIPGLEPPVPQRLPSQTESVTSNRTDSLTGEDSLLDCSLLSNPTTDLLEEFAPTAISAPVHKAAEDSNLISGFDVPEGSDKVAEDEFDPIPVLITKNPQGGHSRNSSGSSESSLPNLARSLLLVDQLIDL

GAK = biological target: T2, GAK (Homo sapiens, UniProt O14976); test: Kinobead selectivity profiling; type: biochemical; conditions: read-out: K ^app; apparent value; off-target of ERK inhibitor
T2 sequence (O14976 2-1311): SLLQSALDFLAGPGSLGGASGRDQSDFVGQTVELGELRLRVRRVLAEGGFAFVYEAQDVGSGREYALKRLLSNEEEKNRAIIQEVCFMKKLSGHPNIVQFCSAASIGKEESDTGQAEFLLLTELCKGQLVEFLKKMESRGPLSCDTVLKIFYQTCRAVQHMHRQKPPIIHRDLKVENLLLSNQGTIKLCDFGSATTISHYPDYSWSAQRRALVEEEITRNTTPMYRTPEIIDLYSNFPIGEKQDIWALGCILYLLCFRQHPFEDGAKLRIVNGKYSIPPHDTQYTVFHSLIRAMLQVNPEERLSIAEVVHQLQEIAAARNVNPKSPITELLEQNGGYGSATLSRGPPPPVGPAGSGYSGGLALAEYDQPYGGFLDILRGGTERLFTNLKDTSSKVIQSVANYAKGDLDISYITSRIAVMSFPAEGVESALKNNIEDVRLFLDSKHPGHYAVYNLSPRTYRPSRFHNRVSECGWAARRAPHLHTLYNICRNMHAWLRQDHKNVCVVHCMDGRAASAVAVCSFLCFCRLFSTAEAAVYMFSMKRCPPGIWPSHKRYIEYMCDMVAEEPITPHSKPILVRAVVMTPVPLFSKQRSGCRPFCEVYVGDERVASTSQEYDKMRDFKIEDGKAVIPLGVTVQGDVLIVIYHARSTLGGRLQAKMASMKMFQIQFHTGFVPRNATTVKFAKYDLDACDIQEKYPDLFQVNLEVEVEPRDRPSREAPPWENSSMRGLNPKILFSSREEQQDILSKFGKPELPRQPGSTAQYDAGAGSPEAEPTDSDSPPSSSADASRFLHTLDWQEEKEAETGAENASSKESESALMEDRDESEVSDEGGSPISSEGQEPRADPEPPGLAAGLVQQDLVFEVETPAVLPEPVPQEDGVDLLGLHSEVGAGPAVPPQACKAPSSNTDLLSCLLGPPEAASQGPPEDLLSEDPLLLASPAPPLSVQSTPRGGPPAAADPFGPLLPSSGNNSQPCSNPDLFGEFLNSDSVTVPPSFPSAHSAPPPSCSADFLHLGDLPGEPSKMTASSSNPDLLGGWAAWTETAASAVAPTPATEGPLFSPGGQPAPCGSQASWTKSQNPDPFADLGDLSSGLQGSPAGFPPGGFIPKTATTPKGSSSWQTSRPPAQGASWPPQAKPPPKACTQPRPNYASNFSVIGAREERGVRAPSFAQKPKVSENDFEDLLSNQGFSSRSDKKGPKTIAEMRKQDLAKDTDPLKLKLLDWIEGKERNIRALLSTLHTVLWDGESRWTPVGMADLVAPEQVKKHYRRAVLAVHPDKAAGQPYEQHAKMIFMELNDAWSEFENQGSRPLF

| SMILES | EC50 (EEF1A2) [nM] | Kd (AAK1) [nM] | Kd (GAK) [nM] |
| --- | --- | --- | --- |
| C=C(F)C(=O)N1CCN(c2nc(OC[C@@H]3CCCN3C)nc3c2CCN(c2cccc4cccc(Cl)c24)C3)C[C@@H]1CC#N [Adagrasib] | 1000 to 3000 |  |  |
| Cn1nccc1Nc1nccc(-c2cc3c(s2)C(C)(C)N(CCN2CCOCC2)C3=O)n1 [Temuterkib] |  | 11 | 155 |

Source: doi:10.1101/2025.01.30.635627v1 (biorxiv, 2025)
